Experiment [1] deals with T1, Dual specificity tyrosine-phosphorylation-regulated kinase 2 (Homo sapiens, UniProt Q92630).
T1 sequence (Q92630 whole entry): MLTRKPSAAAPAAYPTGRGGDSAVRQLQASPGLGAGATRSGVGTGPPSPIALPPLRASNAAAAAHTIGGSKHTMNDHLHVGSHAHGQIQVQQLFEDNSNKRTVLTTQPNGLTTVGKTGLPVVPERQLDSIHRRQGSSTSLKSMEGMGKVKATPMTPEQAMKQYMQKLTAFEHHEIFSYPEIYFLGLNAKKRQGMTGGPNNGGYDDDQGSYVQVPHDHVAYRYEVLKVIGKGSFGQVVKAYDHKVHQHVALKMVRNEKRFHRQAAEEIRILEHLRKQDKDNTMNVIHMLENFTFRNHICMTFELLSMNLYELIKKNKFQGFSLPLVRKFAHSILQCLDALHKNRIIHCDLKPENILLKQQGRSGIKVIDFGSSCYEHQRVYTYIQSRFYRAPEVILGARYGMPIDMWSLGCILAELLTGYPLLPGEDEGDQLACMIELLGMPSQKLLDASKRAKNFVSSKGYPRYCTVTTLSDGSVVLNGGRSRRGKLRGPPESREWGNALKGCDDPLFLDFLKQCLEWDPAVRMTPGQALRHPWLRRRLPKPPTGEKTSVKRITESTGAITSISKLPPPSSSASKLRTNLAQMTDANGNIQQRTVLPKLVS
The experiment in a line: Inhibition of DYRK2 (unknown origin) using Ulight-MBP as substrate and ATP as co-substrate incubated for 40 mins and measured after 1 hr by TR-FRET assay. (In TR-FRET formats the signal depends on donor and acceptor labels being close together.)

Experiment [2] has as its target Cyclin-dependent kinase 9 (Homo sapiens, UniProt P50750). Kind of experiment: Inhibition of CDK9 (unknown origin) using Ulight-MBP as substrate and ATP as co-substrate incubated for 40 mins and measured after 1 hr by TR-FRET assay.
The target of experiment [3] is T2, Dual specificity tyrosine-phosphorylation-regulated kinase 1A (Homo sapiens, UniProt Q13627). Kind of experiment: Inhibition of wild type full length DYRK1A (unknown origin) in human U2OS cells assessed as reduction in pSER520 autophosphorylation incubated for 5 hrs by western blot analysis. Type of experiment: cell-based. Particulars: for pIC50: read-out: IC50; call rule not given here.

Experiment [4] has as its target T2, Dual specificity tyrosine-phosphorylation-regulated kinase 1A. The experiment in a line: Inhibition of DYRK1A (unknown origin) using Ulight-MBP as substrate and ATP as co-substrate incubated for 40 mins and measured after 1 hr by TR-FRET assay.
Experiment [5] has as its system RS4-11. The experiment in a line: Antitumor activity against human RS4-11 cells xenografted in BALB/c nu/nu mouse assessed as reduction in DYRK1A autophosphorylation of S520 residue at 6.25 mg/kg, po measured after 2 hrs by western blotting analysis relative to control. Type of experiment: functional. Also on record: scale not given: the % may be the effect or the level left. (In general: Xenograft models place foreign cells or tissue in a host animal.)

Experiment [6] has as its system RS4-11. Kind of experiment: Antitumor activity against human RS4-11 cells xenografted in BALB/c nu/nu mouse reduction in DYRK1A autophosphorylation of S520 residue at 6.25 mg/kg, po measured after 6 hrs by western blotting analysis relative to control. The arrangement: scale not given: the % may be the effect or the level left. The class given is functional.

IC50 and Activity data for 52 molecules are collected here from ChEMBL document CHEMBL5042474, “Structure-Guided Discovery of Potent and Selective DYRK1A Inhibitors” (J Med Chem, 2021).

pIC50: −log10 of the molar value.

Sequence of Cyclin-dependent kinase 9 (P50750 whole entry): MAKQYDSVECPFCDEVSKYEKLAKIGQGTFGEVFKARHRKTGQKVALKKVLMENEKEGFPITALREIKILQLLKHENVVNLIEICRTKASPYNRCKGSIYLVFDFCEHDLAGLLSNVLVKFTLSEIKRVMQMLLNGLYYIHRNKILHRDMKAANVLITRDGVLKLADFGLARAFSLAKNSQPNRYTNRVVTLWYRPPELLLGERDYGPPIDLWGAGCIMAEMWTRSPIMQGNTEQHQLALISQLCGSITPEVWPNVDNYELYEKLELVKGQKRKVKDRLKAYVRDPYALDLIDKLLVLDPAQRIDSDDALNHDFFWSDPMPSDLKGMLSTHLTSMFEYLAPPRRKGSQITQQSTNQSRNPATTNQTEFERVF

As for `Cc1nc2ccc(-c3cc(N)nc(N)c3)nc2n1CCC1CCCCC1`, in experiment [1], the negative logarithm of the IC50 (pIC50) is 8.05. For the molecule `Cc1nc2ccc(-c3cc(N)nc(N)c3)nc2n1CCOc1cccc(Br)n1`, the pIC50 is 6.54 in experiment [2] and 7.28 in experiment [1]. As for `Cc1cc2cc(-c3cc(N)nc(N)c3)ccc2o1`, the pIC50 in experiment [3] is 5.74; in experiment [2] it was less than 5.00; in experiment [4], 7.47. As for `Cc1nc2ccc(-c3cc(N)nc(N)c3)nc2n1C[C@@H](C)Oc1ccccc1`, the pIC50 in experiment [3] was 6.95; in experiment [2] it was less than 5.52; in experiment [1], 7.34. `c1cc(-c2ccc3occc3c2)ccn1`: the pIC50 in experiment [4] is 6.49. Regarding `Nc1cc(-c2ccc3ncccc3c2)cc(N)n1`, the pIC50 in experiment [4] was 8.00. As for `Nc1cc(-c2ccc3occc3c2)cc(N)n1`, the negative-log IC50 (pIC50) in experiment [3] was 6.30; in experiment [2], 7.39; in experiment [4] it was 7.85. On to `Cc1nc2ccc(-c3cc(N)nc(N)c3)nc2n1C[C@@H](C)Oc1ccccn1`, for which the pIC50 was less than 5.52 in experiment [2], 8.15 in experiment [4] and 6.94 in experiment [1]. On to `Cc1oc2ccc(-c3cc(N)nc(N)c3)cc2c1C`, for which the pIC50 in experiment [3] was 5.78; in experiment [2] it was 5.05; in experiment [4], 9.00; in experiment [1] it was 7.68.

In experiment [4], `Nc1cc(-c2ccn3nccc3n2)cc(N)n1` gave a pIC50 of 8.70. As to `Cc1nc2ccc(-c3cc(N)nc(N)c3)nc2n1CCOc1ccccc1`, the Activity in the experiment with RS4-11 [5] came to 59%; in the experiment on RS4-11 [6] it was 25%. This molecule showed a pIC50 in experiment [1] of 8.05.

Molecule `Nc1cc(-c2ccc3ncoc3c2)cc(N)n1` gave a pIC50 in experiment [4] of 8.00.

Molecule `Cc1cc(-c2ccc(Cl)cc2)ccn1` gave a pIC50 in experiment [4] of less than 5.00. Consider `c1cc(-c2ccc3occc3c2)cc(N2CCNCC2)n1`, for which the negative logarithm of the IC50 (pIC50) in experiment [4] is 5.45. In experiment [4], `CNc1cc(-c2ccc3occc3c2)cc(N)n1` showed a negative-log IC50 (pIC50) of 7.77. The molecule `Cc1nc2ccc(-c3cc(N)nc(N)c3)nc2n1C1CCCC1` had a pIC50 in experiment [1] of 9.00.

In experiment [4], `Nc1cc(-c2ccc3nccn3c2)cc(N)n1` had a pIC50 of 7.77. Still for that read-out and setting: as for `Nc1cc(-c2ccc3ncsc3c2)cc(N)n1`, the figure is 9.00; as for `Cc1cc(-c2ccc3occc3c2)cc(N)n1`, 7.11; as for `Nc1cc(-c2ccc3c(c2)OCCO3)cc(N)n1`, 7.96. For the molecule `Cc1nc2ccc(-c3cc(N)nc(N)c3)nc2n1CCOc1cccc(Cl)n1`, the results for the pIC50 in experiment [2] and in experiment [1] were 6.65 and 7.48, respectively. Take `Cc1nc2ccc(-c3cc(N)nc(N)c3)nc2n1C(C)(C)C`: the pIC50 in experiment [1] is 8.22.

`COCCCNc1cc(-c2ccc3occc3c2)cc(N)n1`: the pIC50 in experiment [4] was 7.02. For the molecule `Cn1cnc2cc(-c3cc(N)nc(N)c3)ccc21`, in experiment [4], the pIC50 is 7.85. `Nc1cc(-c2ccc3occc3c2)nc(N)n1` had a pIC50 in experiment [4] of 7.44. Same read-out and setting: as for `Cc1onc2ccc(-c3cc(N)nc(N)c3)cc12`, the figure is 7.72. For the molecule `Nc1cc(-c2ccc3c(c2)CCO3)nc(N)n1`, the pIC50 in experiment [4] is 7.66. Regarding `Nc1cc(-c2ccc3oc(Cl)cc3c2)cc(N)n1`, in experiment [3] (u2os), the IC50 entry was “Not Active”. For the same molecule, the pIC50 in experiment [2] was 5.27; in experiment [4], 7.12. The molecule `Nc1cc(-c2ccc3ncnn3c2)cc(N)n1` had a pIC50 in experiment [4] of 7.82.

Consider `CNCC(=O)Nc1cc(-c2ccc3occc3c2)cc(N)n1`, for which the negative-log IC50 (pIC50) in experiment [4] is 6.77.

The molecule `COc1ccc(-c2ccnc(C)c2)cc1` showed a pIC50 in experiment [4] of 6.17. As to `Cc1nc2ccc(-c3cc(N)nc(N)c3)nc2n1C[C@@H](C)Oc1cccc(Br)n1`, the pIC50 was 7.36 in experiment [3], 6.33 in experiment [2], 8.30 in experiment [4] and 6.71 in experiment [1].

The molecule `Cc1nc2ccc(-c3cc(N)nc(N)c3)nc2n1CC(F)F` had a pIC50 in experiment [1] of 8.40. For the molecule `Nc1cc(-c2ccc3c(c2)CCO3)cc(N)n1`, the negative-log IC50 (pIC50) in experiment [4] was 7.80. On to `Nc1cc(-c2ccc3occc3c2)cc(NCCc2ccsc2)n1`, for which, in experiment [4], the pIC50 is 6.72. Take `Cc1nc2ccc(-c3cc(N)nc(N)c3)nc2n1Cc1ccc(F)cc1`: the pIC50 in experiment [3] was 5.52; in experiment [1] it was 6.87. `Cc1nc2ccc(-c3cc(N)nc(N)c3)nc2n1CCc1ccco1` had a negative-log IC50 (pIC50) in experiment [1] of 8.22.

Turning to `Cc1nc2ccc(-c3cc(N)nc(N)c3)nc2n1C[C@H](C)Oc1ccccc1`, the pIC50 in experiment [3] was 7.14; in experiment [2], less than 5.52; in experiment [4], 8.10; in experiment [1], 7.66. In the case of `Cc1nc2ccc(-c3cc(N)nc(N)c3)nc2n1CCCC(F)(F)F`, the pIC50 in experiment [1] is 8.00. Turning to `Nc1cc(-c2ccc3ocnc3c2)cc(N)n1`, the pIC50 in experiment [4] was 7.66. `Nc1cc(-c2ccc3occc3c2)ccn1`: in experiment [4], the pIC50 is 7.72. Consider `Cc1nc2ccc(-c3cc(N)nc(N)c3)nc2n1CCOc1ccccn1`, for which the pIC50 in experiment [1] was 7.47. Take `Cc1nc2ccc(-c3cc(N)nc(N)c3)nc2n1C[C@H](C)Oc1ccccn1`: the pIC50 was less than 6.52 in experiment [3], less than 5.52 in experiment [2] and 6.93 in experiment [1].

`COc1ccc(-c2ccnc(N)c2)cc1` showed a pIC50 in experiment [4] of 6.90. Take `Nc1cc(-c2ccc3sccc3c2)cc(N)n1`: the pIC50 in experiment [4] is 6.86.

On to `Nc1cc(-c2ccc3occc(=O)c3c2)cc(N)n1`, for which the pIC50 in experiment [4] was 7.38. Consider `COCCCn1c(C)nc2ccc(-c3cc(N)nc(N)c3)nc21`, for which, in experiment [1], the negative logarithm of the IC50 (pIC50) was 8.30.

In experiment [4], `Cn1cnc2ccc(-c3cc(N)nc(N)c3)nc21` gave a pIC50 of 7.89. Turning to `COc1ccc(-c2cc(N)nc(N)n2)cc1`, the pIC50 in experiment [4] was 6.80.

Regarding `Cc1nc2ccc(-c3cc(N)nc(N)c3)nc2n1CC(F)(F)F`, the Activity in the experiment with RS4-11 [5] came out at 93%; with RS4-11 [6] it was 95%. In experiment [1], this molecule had a pIC50 of 8.22. With `Nc1cc(-c2ccc3occc3n2)cc(N)n1`, the pIC50 in experiment [4] was 8.00. Still for that read-out and setting: as for `COc1cc(-c2ccnc(N)c2)ccc1Cl`, the figure is 6.66.

As a reminder, the pIC50 is the negative decadic logarithm of the IC50, by convention in mol/L.
